Patent publication US8546366B2, “Method for inhibition of tumor cell growth using (22R)-5α-lanosta-8,24-dien-3β,15α,21-triol” (Mackay Memorial Hospital, priority 2011, dated 2013)

How the values were obtained:
[1] = test system: caspase 3 and caspase 8; test: Caspase dependence of growth inhibition and caspase expression; format: cell-based
Description: Thus, the compound may induce apoptosis in a caspase-independent pathway.

[2] = test system: human cervical adenocarcinoma cell line HeLa; test: MTT cell survival assay, cervical adenocarcinoma cells; format: cell-based; details: 5 μg/ml, 72 hours
Protocol: The test adopted the cell survival analysis (i.e., the MTT assay as described above). The purified compound was added into the culture media with human cervical adenocarcinoma cell line HeLa to test for tumor cell survival. This survival assay was carried out with the abovementioned MTT assay, wherein the cervical adenocarcinoma cell line HeLa was purchased from American Type Culture Collection (ATCC), the cell line originated from the epithelium of human cervical adenocarcinoma.
(§1) The human cervical adenocarcinoma cell line HeLa was cultivated in DMEM media containing 100 IU/ml penicillin (Invitrogen, Carlsbad, Calif.), 100 μg/ml streptomycin (Invitrogen, Carlsbad, Calif.), 2 mM glutamin (Invitrogen, Carlsbad, Calif.), and 10% fetal calf serum (Atlanta Biologicals, Norcross, Ga.). The proliferated cells were treated with the compound in the concentration of 0 (the control group) and 5 μg/ml (the experimental group), respectively. The cells were incubated at 37° C. in a 5% CO2 incubator for 24-72 hours. 500 μg/ml of MTT was added into each well in the dark and incubated for 4 hours, followed by the addition of 500 μl of isopropanol to stop the reaction. The plates were read on an ELISA reader at wavelength of 570 nm to determine the survival rates.

[3] = test system: human hepatoma cell line HA22T/VGH; test: MTT cell survival assay, hepatoma cells; format: cell-based; details: 5 μg/ml, 72 hours
Protocol: The test adopted the cell survival analysis (i.e., the MTT assay as described above). The purified compound was added into the culture media with human hepatoma cell line HA22T/VGH to test for tumor cell survival. This survival assay was carried out with the abovementioned MTT assay, wherein the hepatoma cell line HA22T/VGH was obtained from Taipei Veteran General Hospital, the cell line originated from the human hepatoma.
as §1, with “hepatoma” for “cervical adenocarcinoma”, “HA22T/VGH” for “HeLa”

[4] = test system: human pancreatic cancer cell line BxPC-3; test: MTT cell survival assay, pancreatic cancer cells; format: cell-based
Protocol: The test adopted the cell survival analysis (i.e., the MTT assay as described above). The purified compound was added into the culture media with human pancreatic cancer cell line BxPC-3 to test for tumor cell survival. This survival assay was carried out with the abovementioned MTT assay, wherein the pancreatic cancer cell line BxPc-3 was purchased from American Type Culture Collection (ATCC), the cell line originated from the epithelium of human pancreatic adenocarcinomas.
The human pancreatic cancer cell line BxPc-3 was cultivated in DMEM media containing 100 IU/ml penicillin (Invitrogen, Carlsbad, Calif.), 100 μg/ml streptomycin (Invitrogen, Carlsbad, Calif.), 2 mM glutamin (Invitrogen, Carlsbad, Calif.), and 10% fetal calf serum (Atlanta Biologicals, Norcross, Ga.). The proliferated cells were treated with the compound in the concentration of 0 (the control group), 5 and 10 μg/ml (the experimental group), respectively. The cells were incubated at 37° C. in a 5% CO2 incubator for 24-72 hours. 500 μg/ml of MTT was added into each well in the dark and incubated for 4 hours, followed by the addition of 500 μl of isopropanol to stop the reaction. The plates were read on an ELISA reader at wavelength of 570 nm to determine the cell survival rates. The results were reported as the average±(plus/minus) SEM (Standard Error in the Mean). […]

[5] = test system: human esophageal cancer cell line CE-81T/VGH; test: MTT cell survival assay, esophageal cancer cells; format: cell-based; details: 5 μg/ml, 72 hours
Protocol: The purified compound was added into the culture media with human esophageal cancer cell line CE-81T/VGH to test for tumor cell survival. This survival assay was carried out with the abovementioned MTT assay, wherein the CE-81T/VGH esophageal cancer cell line was obtained from Taipei Veteran General Hospital, the cell line originated from the epithelium of human esophageal cancer cells.
as §1, with “esophageal cancer” for “cervical adenocarcinoma”, “CE-81T/VGH” for “HeLa”

[6] = test system: human leukemic cell line U937; test: Cell cycle analysis by flow cytometry; format: cell-based; details: 2.5 μg/ml, 48 hours
Protocol: Flow cytometer was used to analyze the effect of the compound on cell cycle of human leukemic cells.
The compound in concentration of 2.5 μg/ml was used to treat human leukemic cell line U937, and cells without addition of compound were served as the control group. The treated cells after 48 hours of treatment were fixed at 4° C. with 70% ethanol for 1 hour and stained for 30 minutes with propidium iodide solution (0.5 mg/ml of propidium iodide; 0.1 mg/ml of RNAse) contained in a CycleTEST PLUS DNA reagent kit (Becton Dickinson, Lincoln Park, N.J.). DNA content measurement on the collected 10^4 cells was performed on the FACS Calibur flow cytometer (Becton Dickinson), and the cell cycle changes were analyzed using a ModFit software (Becton Dickinson).

[7] = test system: tumor cells; test: DNA gel electrophoresis, inter-nucleosomal DNA cleavage; format: cell-based; details: 5 μg/ml; 24 hours; 1.5% agarose gel
Protocol: Lane 1, molecular marker; Lane 2, control group; Lane 3, experimental group (treated with 5 μg/ml of the compound for 24 hours).
In addition to the morphological changes described above, cells may show some biochemical changes during cell apoptosis, including chromatin condensation, formation of apoptotic body due to cell fragmentation, and inter-nucleosomal cleavage of DNA that leading to formation of DNA ladder in DNA electrophoresis. To confirm the relationship of inhibition activity between the compound and the stage of cell apoptosis, the experiment adopted DNA electrophoresis to examine inter-nucleosomal cleavage of DNA into DNA ladder at late stage of cell apoptosis.
Total DNAs were extracted and analyzed by 1.5% agarose gel electrophoresis in TBE buffer (5 mM TBE buffer containing 1 μM EDTA, pH 8.0). The gel was stained with ethidium bromide and visualized under UV.

[8] = test system: U937, BxPC-3, CE-81T/VGH, HA22T/VGH and HeLa tumor cell lines; test: MTT assay, summary over the inhibited tumor cell lines; format: cell-based, human; details: range over U937, BxPC-3, CE-81T/VGH
[9] = test system: human ovarian cancer cell line SKOV-3; test: MTT cell survival assay, ovarian cancer cells; format: cell-based; details: 5 μg/ml, 72 hours
Protocol: The test adopted the cell survival analysis (i.e. the MTT assay as described above). The purified compound was added into the culture media of human ovarian cancer cell line SKOV-3 to test for tumor cell survival. This survival assay was carried out with the abovementioned MTT assay, wherein the ovarian cancer cell line SKOV-3 was purchased from American Type Culture Collection (ATCC), the cell line originated from the epithelium of human ovarian cancer.
as §1, with “ovarian cancer” for “cervical adenocarcinoma”, “SKOV-3” for “HeLa”

[10] = test system: human leukemic cell U937; test: Mitochondria transmembrane potential, DiOC6(3) flow cytometry; format: cell-based; details: 5 μg/ml, 16 hours
Protocol: Human leukemic cell U937 was treated with the compound (5 μg/ml) for 16 hours. The same cells treated with anti-tumor agent camptothecin (4 μM) for 16 hours were used as positive control group, while untreated cells were used as control group. The cells were then washed with PBS solution, followed by addition of 40 nM 3,3′-dihexyloxacarbocyanine(DiOC6(3); Molecular Probes, Eugene, Oreg.) into culture medium at 37° C. in the dark and incubated for 15 minutes. The results were analyzed immediately using flow cytometry, wherein the excitation wavelength was set at 488 nm and emission wavelength set at 530 nm to detect fluorescence density and as representative of mitochondria transmembrane potential change.

[11] = test system: human leukemic cell U937; test: MTT cell survival assay, leukemic cells U937; format: cell-based
Protocol: Examples of the present invention adopted anti-tumor drugs screening model of National Cancer Institute (NCI) to examine inhibitory effect of the compound on cancer cells. The compound was added into culture medium containing leukemic cells U937 (a human monoblastoid leukemic cell line) to test for tumor cell survival. Cell survival rate is determined by well known MTT assay, and U937, a human myeloid leukemic cell line obtained from American Type Culture Collection (ATCC), is belonged to one of human acute leukemic cell lines and is classified as monoblasts during hematopoietic differentiation.
MTT assay is a commonly used method for analysis of percent of viable cells, wherein MTT (3-[4,5-dimethylthiazol-2-yl]2,5-diphenyltetrazolium bromide) is a yellow color dye that can be absorbed by living cells and be converted by mitochondria succinate tetrazolium reductase to water insoluble purple-blue formazan. Therefore, the amount of formazan formation can be used as an assessment tool to determine the survival rate of cells.
The human leukemia cell line U937 was cultivated in RPMI 1640 medium containing fetal calf serum for 24 hours and maintained in the exponential growth condition. The proliferating cells were treated with the compound in the concentration of 0 (the control group), 1.25, 2.5, 5 or 10 μg/ml at 37° C. under 5% CO2 for 24-72 hours, respectively. Then MTT was added in a concentration of 500 μg/ml into each wells in the dark and incubated for 4 hours, followed by the addition of 500 μl of isopropanol to stop the reaction. The plates were read on an ELISA reader at wavelength of 570 nm to determine the cell survival rates. The results were reported as the average±(plus/minus) SEM (Standard Error in the Mean). For statistical analysis, the t-test was used to compare the difference between each experiment result. p<0.05 was considered statistically significant.

[12] = test system: human normal monocytes isolated from peripheral blood mononuclelar cells; test: Viability of human normal monocytes; format: cell-based; details: for effect on normal monocytes: normal human peripheral blood monocytes
Protocol: FIG. 4 is a morphological assessment of human normal peripheral blood monocytes treated by the compound. Liu's stain method was used for morphological observation. (A) Control group and (B) Experimental group (treated with 5 μg/ml of the compound for 1 day).

SMILES	block of induced growth inhibition by caspase 3 and pan-caspase inhibitors [1]	inhibitory rate [2]	inhibitory rate [3]	inhibition rate ([4]; 5 μg/ml (summary))	highest inhibitory rate ([4]; 5 and 10 μg/ml groups, third day, highest rate)	inhibitory rate [5]	cell cycle distribution [6]	genomic DNA fragmentation (DNA ladder) [7]	inhibition rate on tumor cell lines [8]	growth inhibition [9]	mitochondria transmembrane potential change [10]	inhibitory rate ([11]; U937, 1.25, 2.5, 5 and 10 μg/ml, all groups, third day)	inhibitory rate ([11]; U937, 5 and 10 μg/ml groups, third day)	highest inhibitory rate ([11]; U937, highest rate, 5 and 10 μg/ml groups, third day)	IC50 ([11]; U937 cells, MTT)	viability inhibition ([12]; human normal monocytes)	effect on normal monocytes [12]	effect on normal monocytes ([12]; listed as The compound)
CC[C@@]1(O)C(=O)OCc2c1cc1n(c2=O)Cc2cc3ccccc3nc2-1 [camptothecin, reference compound]	could block																	
CC(C)=CCC[C@@H](CO)[C@H]1C[C@H](O)[C@@]2(C)C3=C(CC[C@]12C)[C@@]1(C)CC[C@H](O)C(C)(C)[C@@H]1CC3 [the compound, (22R)-5α-lanosta-8,24-dien-3β,15α,21-triol]		56.8%	90.3%	49.1%	48.5%	61.4%	hypoploidy, G2/M phase arrest, and polyploidy	induced the genomic DNA into oligonucleosomal fragmentations	48.5˜99.8%	could not inhibit the growth	did not be exhibited significantly reduction of transmembrane potential	more than 60%	more than 95%	99.8%	about 2 μg/ml	< 10%	without toxicity to normal monocytes	no effect
